# ChEMBL document CHEMBL1145598, “Discovery and preclinical studies of 5-isopropyl-6-(5-methyl-1,3,4-oxadiazol-2-yl)-N-(2-methyl-1H-pyrrolo[2,3-b]pyridin-5-yl)pyrrolo[2,1-f][1,2,4]triazin-4-amine (BMS-645737), an in vivo active potent VEGFR-2 inhibitor” (Bioorg Med Chem Lett, 2008)
# How the values were obtained:
# [1] = AUC in mouse at 50 mg/kg, po after 4 hrs; assay type: ADME, organism-based; design: time < 4 hr, dose 50 mg/kg, route oral; conditions: plasma
# [2] = molecular target: hERG (KCNH2) (Homo sapiens, UniProt Q12809); test: Inhibition of human ERG at 10 uM by patch clamp method
# [3] = molecular target: Vascular endothelial growth factor receptor 2 (Homo sapiens, UniProt P35968)
# Description: Inhibition of human VEGFR2
# [4] = molecular target: Platelet-derived growth factor receptor beta (Homo sapiens, UniProt P09619); test: Inhibition of PDGFRbeta
# [5] = molecular target: Tyrosine-protein kinase Lck (Homo sapiens, UniProt P06239); test: Inhibition of LCK
# [6] = Total AUC in BALB/c mouse at 30 mg/kg, po; assay type: ADME, organism-based; design: time AUCmax, dose 30 mg/kg, route oral; conditions: in vivo
# [7] = molecular target: Cytochrome P450 3A4 (Homo sapiens, UniProt P08684); test: Inhibition of CYP3A4; assay type: ADME
# [8] = Oral bioavailability in BALB/c mouse at 30 mg/kg; conditions: in vivo
# [9] = Half life in BALB/c mouse at 5 mg/kg, iv; assay type: ADME, organism-based; design: dose 5 mg/kg, route intravenous; conditions: in vivo
# [10] = Total AUC in BALB/c mouse at 5 mg/kg, iv; assay type: ADME, organism-based; design: time AUCmax, dose 5 mg/kg, route intravenous; conditions: in vivo
# [11] = molecular target: Receptor tyrosine-protein kinase erbB-2 (Homo sapiens, UniProt P04626); test: Inhibition of HER2
# [12] = molecular target: Fibroblast growth factor receptor 1 (Homo sapiens, UniProt P11362); test: Inhibition of FGFR1
# [13] = molecular target: Protein kinase C alpha type (Homo sapiens, UniProt P17252); test: Inhibition of PKCalpha
# [14] = Volume of distribution at steady state in BALB/c mouse at 5 mg/kg, iv; assay type: ADME, organism-based; design: dose 5 mg/kg, route intravenous; conditions: in vivo, read-out: Vdss
# [15] = Clearance in BALB/c mouse at 5 mg/kg, iv; assay type: ADME, organism-based; design: dose 5 mg/kg, route intravenous; conditions: in vivo
# [16] = molecular target: Epidermal growth factor receptor (Homo sapiens, UniProt P00533); test: Inhibition of EGFR
# [17] = Mean resident time in BALB/c mouse at 5 mg/kg, iv; assay type: ADME, organism-based; design: dose 5 mg/kg, route intravenous; conditions: in vivo
# [18] = molecular target: T1, Tyrosine-protein kinase JAK3 (Homo sapiens, UniProt P52333); test: Inhibition of JAK3
# T1 sequence (P52333 whole entry): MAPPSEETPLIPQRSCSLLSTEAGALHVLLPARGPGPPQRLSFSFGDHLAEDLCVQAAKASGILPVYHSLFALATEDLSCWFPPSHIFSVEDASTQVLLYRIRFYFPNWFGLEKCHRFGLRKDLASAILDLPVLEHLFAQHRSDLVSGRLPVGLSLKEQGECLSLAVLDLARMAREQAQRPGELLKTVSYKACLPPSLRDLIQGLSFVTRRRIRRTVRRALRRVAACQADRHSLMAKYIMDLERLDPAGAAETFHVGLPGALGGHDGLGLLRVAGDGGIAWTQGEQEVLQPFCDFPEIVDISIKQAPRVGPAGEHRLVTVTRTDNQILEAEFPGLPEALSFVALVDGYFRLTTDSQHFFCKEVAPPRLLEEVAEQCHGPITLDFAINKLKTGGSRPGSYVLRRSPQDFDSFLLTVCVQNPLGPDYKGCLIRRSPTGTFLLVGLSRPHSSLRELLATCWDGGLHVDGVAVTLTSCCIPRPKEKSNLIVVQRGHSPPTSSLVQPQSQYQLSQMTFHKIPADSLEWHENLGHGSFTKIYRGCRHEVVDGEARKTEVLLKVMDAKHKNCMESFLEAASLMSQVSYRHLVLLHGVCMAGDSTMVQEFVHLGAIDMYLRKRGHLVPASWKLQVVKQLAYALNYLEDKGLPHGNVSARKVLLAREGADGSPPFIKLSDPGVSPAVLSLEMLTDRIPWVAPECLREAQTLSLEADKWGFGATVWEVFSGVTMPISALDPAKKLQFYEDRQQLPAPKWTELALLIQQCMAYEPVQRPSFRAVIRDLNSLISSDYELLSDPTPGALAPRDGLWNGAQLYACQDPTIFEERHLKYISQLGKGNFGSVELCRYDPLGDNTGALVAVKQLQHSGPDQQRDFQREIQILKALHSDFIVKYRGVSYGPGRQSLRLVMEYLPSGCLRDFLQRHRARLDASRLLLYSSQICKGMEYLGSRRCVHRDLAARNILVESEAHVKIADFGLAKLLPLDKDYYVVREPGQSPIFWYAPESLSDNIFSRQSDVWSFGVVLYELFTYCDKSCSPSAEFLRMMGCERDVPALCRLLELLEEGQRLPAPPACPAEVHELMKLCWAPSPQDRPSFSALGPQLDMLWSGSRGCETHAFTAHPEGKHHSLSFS
# [19] = Half life in BALB/c mouse at 30 mg/kg, po; assay type: ADME, organism-based; design: dose 30 mg/kg, route oral; conditions: in vivo
# [20] = system: L2987; test: Antitumor activity against human L2987 cells xenografted in mouse; assay type: functional, cell-based
# [21] = system: L2987; test: Antitumor activity against human L2987 cells xenografted mouse at 7.5 mg/kg, po after 4 days; assay type: functional
# [22] = Antitumor activity against human GTL16 cells; assay type: functional, cell-based; conditions: GTL 16
# [23] = Aqueous solubility at pH 6.5; assay type: physicochemical; conditions: buffer
# [24] = system: NCI-N87; test: Antitumor activity against human N87 cells; assay type: functional, cell-based
# [25] = system: HUVEC; test: Antiproliferative activity against VEGF-induced HUVEC; assay type: functional, cell-based; conditions: Homo sapiens
# [26] = system: Mus musculus; test: Toxicity in human L2987 cells xenografted mouse assessed as weight loss at 15 mg/kg, po; assay type: organism-based; design: dose 15 mg/kg, route oral; conditions: in vivo
# [27] = Antitumor activity against human H1993 cells; assay type: functional, cell-based; conditions: NCI-H1993
# [28] = Aqueous solubility at pH 2; assay type: physicochemical; conditions: buffer
# [29] = system: L2987; test: Antitumor activity against human L2987 cells xenografted mouse at 15 mg/kg, po after 4 days; assay type: functional
# [30] = Tmax in BALB/c mouse at 30 mg/kg, po; conditions: in vivo
# [31] = molecular target: Vascular endothelial growth factor receptor 1 (Homo sapiens, UniProt P17948); test: Inhibition of VEGFR1
# [32] = Cmax in human L2987 cells xenografted mouse at 15 mg/kg, po after 24 hrs; assay type: ADME, organism-based; design: dose 15 mg/kg, route oral; conditions: in vivo
# [33] = system: HUVEC; test: Antiproliferative activity against bFGF-induced HUVEC; assay type: functional, cell-based; conditions: Homo sapiens
# [34] = system: Mus musculus; test: Toxicity in human L2987 cells xenografted mouse assessed as morbidity at 7.5 mg/kg, po; assay type: organism-based; design: dose 7.5 mg/kg, route oral; conditions: in vivo
# [35] = molecular target: Vascular endothelial growth factor receptor 2 (Mus musculus, UniProt P35918); test: Inhibition of mouse Flk1
# [36] = system: L2987; test: Antitumor activity against po dosed human L2987 cells xenografted mouse after 24 hrs; assay type: functional
# [37] = AUC in human L2987 cells xenografted mouse at 7.5 mg/kg, po after 24 hrs; assay type: ADME, organism-based; design: time < 24 hr, dose 7.5 mg/kg, route oral; conditions: in vivo
# [38] = system: Mus musculus; test: Toxicity in human L2987 cells xenografted mouse assessed as weight loss at 7.5 mg/kg, po; assay type: organism-based; design: dose 7.5 mg/kg, route oral; conditions: in vivo
# [39] = Cmax in human L2987 cells xenografted mouse at 7.5 mg/kg, po after 24 hrs; assay type: ADME, organism-based; design: dose 7.5 mg/kg, route oral; conditions: in vivo
# [40] = molecular target: Voltage-gated inwardly rectifying potassium channel KCNH2 (Homo sapiens, UniProt Q12809); test: Inhibition of human ERG by patch clamp method
# [41] = system: Mus musculus; test: Toxicity in human L2987 cells xenografted mouse assessed as morbidity at 15 mg/kg, po; assay type: organism-based; design: dose 15 mg/kg, route oral; conditions: in vivo
# [42] = system: Rattus norvegicus; test: AUC in rat at 30 mg/kg; assay type: ADME, organism-based, Plasma; design: dose 30 mg/kg; conditions: in vivo
# [43] = AUC in human L2987 cells xenografted mouse at 15 mg/kg, po after 24 hrs; assay type: ADME, organism-based; design: time < 24 hr, dose 15 mg/kg, route oral; conditions: in vivo
# [44] = Oral bioavailability in rat at 30 mg/kg; assay type: ADME, organism-based; conditions: in vivo
# Sequence of Cytochrome P450 3A4 (P08684 whole entry): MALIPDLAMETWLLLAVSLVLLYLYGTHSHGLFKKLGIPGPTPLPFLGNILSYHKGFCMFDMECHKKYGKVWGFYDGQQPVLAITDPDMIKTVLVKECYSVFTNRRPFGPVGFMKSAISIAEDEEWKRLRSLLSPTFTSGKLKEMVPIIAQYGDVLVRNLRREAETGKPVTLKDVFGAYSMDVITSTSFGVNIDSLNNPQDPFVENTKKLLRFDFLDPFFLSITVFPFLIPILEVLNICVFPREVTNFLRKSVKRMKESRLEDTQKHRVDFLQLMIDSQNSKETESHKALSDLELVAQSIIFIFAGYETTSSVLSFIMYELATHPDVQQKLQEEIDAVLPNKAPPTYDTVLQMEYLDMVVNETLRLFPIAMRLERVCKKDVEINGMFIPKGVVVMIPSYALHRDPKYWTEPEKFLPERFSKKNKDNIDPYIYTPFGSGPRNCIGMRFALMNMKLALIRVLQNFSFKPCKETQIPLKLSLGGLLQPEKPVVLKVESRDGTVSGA
# Sequence of Receptor tyrosine-protein kinase erbB-2 (P04626 whole entry): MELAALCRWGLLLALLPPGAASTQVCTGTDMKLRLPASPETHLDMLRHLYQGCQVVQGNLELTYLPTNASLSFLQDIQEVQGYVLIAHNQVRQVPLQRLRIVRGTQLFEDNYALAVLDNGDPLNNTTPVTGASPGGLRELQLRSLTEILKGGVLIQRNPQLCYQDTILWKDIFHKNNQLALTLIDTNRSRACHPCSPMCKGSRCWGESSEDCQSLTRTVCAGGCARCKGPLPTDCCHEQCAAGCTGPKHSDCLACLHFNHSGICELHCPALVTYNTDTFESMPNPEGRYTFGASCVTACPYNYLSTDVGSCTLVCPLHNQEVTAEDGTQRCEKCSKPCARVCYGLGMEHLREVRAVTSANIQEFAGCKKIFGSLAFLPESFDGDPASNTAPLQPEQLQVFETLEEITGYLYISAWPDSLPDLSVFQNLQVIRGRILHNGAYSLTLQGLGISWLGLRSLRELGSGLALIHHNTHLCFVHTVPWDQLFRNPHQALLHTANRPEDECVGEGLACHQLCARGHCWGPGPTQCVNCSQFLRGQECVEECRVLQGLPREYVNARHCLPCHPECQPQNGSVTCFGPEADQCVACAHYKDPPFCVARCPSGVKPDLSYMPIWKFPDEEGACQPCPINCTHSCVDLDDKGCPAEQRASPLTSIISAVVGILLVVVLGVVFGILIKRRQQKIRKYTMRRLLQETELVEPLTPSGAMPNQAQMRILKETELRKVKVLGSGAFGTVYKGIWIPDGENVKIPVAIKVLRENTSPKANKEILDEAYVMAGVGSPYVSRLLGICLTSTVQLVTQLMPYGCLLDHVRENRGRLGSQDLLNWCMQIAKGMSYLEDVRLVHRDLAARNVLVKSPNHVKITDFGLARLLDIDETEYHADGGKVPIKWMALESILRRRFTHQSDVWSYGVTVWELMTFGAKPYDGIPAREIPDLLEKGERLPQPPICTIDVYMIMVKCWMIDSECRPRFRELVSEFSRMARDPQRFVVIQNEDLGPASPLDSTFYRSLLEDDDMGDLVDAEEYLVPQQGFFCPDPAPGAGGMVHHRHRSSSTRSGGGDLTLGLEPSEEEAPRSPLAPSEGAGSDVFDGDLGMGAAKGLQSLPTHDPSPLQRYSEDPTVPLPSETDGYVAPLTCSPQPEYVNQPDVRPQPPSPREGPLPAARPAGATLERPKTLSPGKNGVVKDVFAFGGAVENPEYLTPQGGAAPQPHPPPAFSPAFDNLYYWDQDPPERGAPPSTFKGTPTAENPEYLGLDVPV
# Sequence of Epidermal growth factor receptor (P00533 whole entry): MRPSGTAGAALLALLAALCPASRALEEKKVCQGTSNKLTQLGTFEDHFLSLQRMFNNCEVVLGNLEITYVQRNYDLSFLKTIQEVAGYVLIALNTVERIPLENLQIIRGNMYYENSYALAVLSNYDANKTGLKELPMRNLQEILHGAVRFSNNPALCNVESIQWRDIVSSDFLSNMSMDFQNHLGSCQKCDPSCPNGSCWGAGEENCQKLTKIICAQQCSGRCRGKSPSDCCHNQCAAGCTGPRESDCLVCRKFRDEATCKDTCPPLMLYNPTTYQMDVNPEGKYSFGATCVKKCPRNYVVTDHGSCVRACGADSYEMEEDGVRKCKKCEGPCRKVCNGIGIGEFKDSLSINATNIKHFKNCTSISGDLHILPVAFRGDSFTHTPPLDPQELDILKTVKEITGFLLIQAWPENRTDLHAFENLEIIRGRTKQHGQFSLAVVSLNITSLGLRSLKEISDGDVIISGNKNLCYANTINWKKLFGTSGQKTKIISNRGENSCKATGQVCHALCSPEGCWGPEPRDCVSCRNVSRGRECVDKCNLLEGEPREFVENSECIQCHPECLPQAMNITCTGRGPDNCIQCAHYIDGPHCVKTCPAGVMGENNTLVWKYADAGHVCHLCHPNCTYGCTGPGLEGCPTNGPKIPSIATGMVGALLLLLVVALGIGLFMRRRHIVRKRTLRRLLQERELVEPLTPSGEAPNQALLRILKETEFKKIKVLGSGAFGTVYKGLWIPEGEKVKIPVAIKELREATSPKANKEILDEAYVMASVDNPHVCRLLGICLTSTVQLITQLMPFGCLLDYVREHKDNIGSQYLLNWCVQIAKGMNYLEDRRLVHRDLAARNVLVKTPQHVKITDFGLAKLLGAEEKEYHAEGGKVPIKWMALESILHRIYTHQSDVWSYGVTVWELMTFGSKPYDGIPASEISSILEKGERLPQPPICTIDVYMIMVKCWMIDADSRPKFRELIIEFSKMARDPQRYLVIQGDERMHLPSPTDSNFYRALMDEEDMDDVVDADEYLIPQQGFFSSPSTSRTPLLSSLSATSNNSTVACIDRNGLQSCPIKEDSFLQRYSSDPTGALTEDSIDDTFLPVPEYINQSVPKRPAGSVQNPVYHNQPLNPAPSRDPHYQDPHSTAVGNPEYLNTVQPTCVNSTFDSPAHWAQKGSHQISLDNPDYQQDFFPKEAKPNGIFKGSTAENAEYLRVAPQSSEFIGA
# Sequence of Vascular endothelial growth factor receptor 2 (Homo sapiens, UniProt P35968) (P35968 whole entry): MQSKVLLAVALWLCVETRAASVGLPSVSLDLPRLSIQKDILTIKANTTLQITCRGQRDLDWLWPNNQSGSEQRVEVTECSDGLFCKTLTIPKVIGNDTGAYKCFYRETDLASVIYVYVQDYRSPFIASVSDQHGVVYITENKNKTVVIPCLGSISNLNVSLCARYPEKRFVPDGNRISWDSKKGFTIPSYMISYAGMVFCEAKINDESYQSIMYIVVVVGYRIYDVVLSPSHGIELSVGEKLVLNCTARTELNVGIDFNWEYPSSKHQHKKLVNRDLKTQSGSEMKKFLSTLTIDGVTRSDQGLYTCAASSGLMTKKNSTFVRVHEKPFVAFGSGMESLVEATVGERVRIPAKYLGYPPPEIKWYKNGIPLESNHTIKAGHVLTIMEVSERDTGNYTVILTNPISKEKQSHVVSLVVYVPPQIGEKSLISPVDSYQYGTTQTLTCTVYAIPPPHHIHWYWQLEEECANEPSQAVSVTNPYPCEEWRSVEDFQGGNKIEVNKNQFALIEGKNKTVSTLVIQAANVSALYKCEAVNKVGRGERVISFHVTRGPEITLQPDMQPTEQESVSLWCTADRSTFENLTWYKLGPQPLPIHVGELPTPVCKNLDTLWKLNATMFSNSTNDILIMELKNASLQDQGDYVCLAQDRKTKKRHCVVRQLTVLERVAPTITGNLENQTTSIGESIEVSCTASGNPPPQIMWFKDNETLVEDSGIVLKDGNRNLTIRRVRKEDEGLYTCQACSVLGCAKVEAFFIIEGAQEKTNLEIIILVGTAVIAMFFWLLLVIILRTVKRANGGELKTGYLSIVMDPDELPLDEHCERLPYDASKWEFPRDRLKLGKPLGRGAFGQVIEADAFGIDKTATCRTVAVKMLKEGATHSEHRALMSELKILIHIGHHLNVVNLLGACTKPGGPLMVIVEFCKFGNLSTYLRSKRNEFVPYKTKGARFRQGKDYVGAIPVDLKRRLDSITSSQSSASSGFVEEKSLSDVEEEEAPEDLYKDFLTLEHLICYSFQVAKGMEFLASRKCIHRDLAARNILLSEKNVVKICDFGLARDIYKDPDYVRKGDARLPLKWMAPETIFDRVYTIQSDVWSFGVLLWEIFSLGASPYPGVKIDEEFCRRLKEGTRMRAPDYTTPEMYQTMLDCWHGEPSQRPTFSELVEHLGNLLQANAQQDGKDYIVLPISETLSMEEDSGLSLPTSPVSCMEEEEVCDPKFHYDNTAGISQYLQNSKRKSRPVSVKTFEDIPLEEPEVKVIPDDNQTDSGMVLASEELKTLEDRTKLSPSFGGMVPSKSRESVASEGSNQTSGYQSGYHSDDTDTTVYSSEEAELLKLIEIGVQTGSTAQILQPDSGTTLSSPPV
smiles,measurement,setting,value
Cc1cc2c(F)c(Oc3ncnn4cc(OC[C@@H](C)O)c(C)c34)ccc2[nH]1 [BRIVANIB],AUC at 4 h,[1],136 µM·h
Cc1nnc(-c2cn3ncnc(Nc4cnc5[nH]ccc5c4)c3c2C(C)C)o1,inhibition at 10 µM,[2],29%
same,IC50,[3],31 nM
same,IC50,[4],389 nM
same,IC50,[5],185 nM
same,AUC,[6],21.7 µM·h
same,IC50,[7],> 40000 nM
same,bioavailability,[8],29%
same,half-life,[9],1.2 h
same,AUC,[10],12.4 µM·h
same,IC50,[11],500 nM
same,IC50,[12],61 nM
same,IC50,[13],> 50000 nM
same,Vd,[14],1.9 L/kg
same,clearance,[15],18 mL/min/kg
same,IC50,[16],150 nM
same,MRT,[17],1.7 h
same,IC50,[18],> 50000 nM
same,half-life,[19],4.5 h
Cc1cc2c(F)c(Oc3ncnn4cc(OC[C@@H](C)O)c(C)c34)cnc2[nH]1,AUC at 4 h,[1],29.6 µM·h
Cc1c(OC[C@@H](C)O)cn2ncnc(Oc3cnc4[nH]ccc4c3F)c12,AUC at 4 h,[1],11.1 µM·h
Cc1cc2cc(Nc3ncnn4cc(-c5nnc(C)o5)c(C(C)C)c34)cnc2[nH]1,IC50,[20],> 2500 nM
same,Activity,[21],>=50%
same,IC50,[22],> 10000 nM
same,inhibition at 10 µM,[2],64%
same,solubility,[23],2.8 µg/mL
same,IC50,[24],> 10000 nM
same,IC50,[3],25 nM
same,IC50,[4],> 2000 nM
same,IC50,[25],13 nM
same,IC50,[5],> 2000 nM
same,Activity,[26],Non-toxic
same,AUC,[6],182 µM·h
same,IC50,[27],> 10000 nM
same,IC50,[7],11500 nM
same,solubility,[28],400 µg/mL
same,Activity,[29],>=50%
same,bioavailability,[8],> 100%
same,half-life,[9],2.9 h
same,Tmax,[30],0.5 h
same,AUC,[10],25 µM·h
same,IC50,[31],268 nM
same,Cmax,[32],2640 nM
same,IC50,[33],138 nM
same,Activity,[34],Non-toxic
same,IC50,[35],53 nM
same,Activity,[36],Dose-dependent effect
same,minimal effective dose,[36]; read-out: MED,7.5 mg/kg
same,IC50,[11],> 5000 nM
same,AUC at 24 h,[37],11 µM·h
same,IC50,[12],78 nM
same,Activity,[38],Non-toxic
same,IC50,[13],> 50000 nM
same,Vd,[14],1.4 L/kg
same,Cmax,[39],1030 nM
same,clearance,[15],8.5 mL/min/kg
same,IC50,[40],6600 nM
same,Activity,[41],Non-toxic
same,AUC,[42],287 µM·h
same,IC50,[16],> 1000 nM
same,MRT,[17],2.7 h
same,AUC at 24 h,[43],30 µM·h
same,bioavailability,[44],68%
same,IC50,[18],> 50000 nM
same,half-life,[19],2.5 h
CNc1nnc(-c2cn3ncnc(Nc4cnc5[nH]c(C)cc5c4)c3c2C(C)C)o1,AUC,[6],272 µM·h
same,IC50,[7],6400 nM
same,bioavailability,[8],99%
same,half-life,[9],2.8 h
same,AUC,[10],46 µM·h
same,Vd,[14],1.2 L/kg
same,clearance,[15],4.5 mL/min/kg
same,MRT,[17],4.3 h
same,half-life,[19],2.8 h
